{"source": "patent US11046725B2", "about": "“Galactoside inhibitor of galectins” (GALECTO BIOTECH AB, priority 2018, dated 2021)", "origin": "cited, not measured here", "biological_target": "Galectin-1 (Homo sapiens (Human), UniProt P09382)", "sequence (P09382 whole entry, species assumed)": "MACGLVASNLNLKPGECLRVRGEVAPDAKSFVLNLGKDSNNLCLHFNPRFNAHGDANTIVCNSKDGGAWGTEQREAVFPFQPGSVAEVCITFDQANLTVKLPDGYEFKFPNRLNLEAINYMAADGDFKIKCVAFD", "details": "T. Delaine, 2016; read-out: affinity to Galectin-1; cited from earlier work", "note": "pKd: −log10 of the molar value."}
{"molecule": "OCC1O[C@@H](SC2O[C@H](CO)C(O)C(n3cc(-c4ccsc4)nn3)[C@H]2O)C(O)C(n2cc(-c3ccsc3)nn2)[C@H]1O", "note": "(stereo partly shown)", "values": [{"measurement": "pKd", "value": "> 8.00"}]}
